Broadly, the solubility is the dissolved amount per volume that the medium holds. A high value points to much dissolved substance. The IC50 is the concentration that inhibits the measured activity by half. A low value points to greater potency.

Data set [1] in a line: Solubility of the compound at pH 7.4. Format: physicochemical. To be noted: buffer.
A short description of data set [2]: Solubility of the compound at pH 6.5. Format: physicochemical. The note with it: buffer.
The target of data set [3] is T1, Serine/threonine-protein kinase B-raf (Homo sapiens, UniProt P15056, V600E). Nature of the data set: Inhibition of full-length B-Raf V600E mutant.
T1 sequence (P15056 2-766 V600E limits assumed): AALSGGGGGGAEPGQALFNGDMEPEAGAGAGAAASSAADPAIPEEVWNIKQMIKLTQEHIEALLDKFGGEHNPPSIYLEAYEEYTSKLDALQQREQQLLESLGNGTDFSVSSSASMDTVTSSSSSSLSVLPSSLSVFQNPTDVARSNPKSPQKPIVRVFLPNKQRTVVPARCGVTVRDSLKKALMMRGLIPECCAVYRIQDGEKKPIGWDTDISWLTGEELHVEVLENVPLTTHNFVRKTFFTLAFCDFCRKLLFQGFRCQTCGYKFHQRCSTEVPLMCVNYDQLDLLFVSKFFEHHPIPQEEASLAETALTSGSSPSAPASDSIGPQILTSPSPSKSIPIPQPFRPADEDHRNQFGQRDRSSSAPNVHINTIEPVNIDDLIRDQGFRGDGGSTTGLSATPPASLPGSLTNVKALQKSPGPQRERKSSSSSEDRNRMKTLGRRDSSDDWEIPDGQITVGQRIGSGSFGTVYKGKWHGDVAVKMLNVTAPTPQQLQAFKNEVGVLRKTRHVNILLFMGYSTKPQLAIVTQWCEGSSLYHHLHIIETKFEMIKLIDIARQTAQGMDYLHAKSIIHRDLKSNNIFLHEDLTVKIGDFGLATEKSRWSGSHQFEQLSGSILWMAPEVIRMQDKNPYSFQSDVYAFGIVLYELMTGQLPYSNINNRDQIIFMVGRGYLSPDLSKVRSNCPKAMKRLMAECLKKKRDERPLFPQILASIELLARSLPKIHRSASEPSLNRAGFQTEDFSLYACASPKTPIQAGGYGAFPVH
Data set [4] concerns the target T1, Serine/threonine-protein kinase B-raf. Nature of the data set: Inhibition of B-Raf V600E mutant-mediated Erk phosphorylation in human MALME-3M cells. Format: cell-based.

Each structure is given as a SMILES string. Converted amounts (≈) assume the structure as drawn.

Consider `CC(C)CS(=O)(=O)Nc1ccc(F)c(C(=O)Nc2cnc3[nH]nc(C4CC4)c3c2)c1Cl`, for which the solubility was less than 1 µg/mL in data set [1] and 1 µg/mL (≈ 2.15 µM) in data set [2]. Moreover, the IC50 in data set [3] worked out at 2 nM; in data set [4] it was 18 nM.
With `O=C(Nc1cnc2[nH]nc(C3CC3)c2c1)c1c(F)ccc(NS(=O)(=O)CCCF)c1Cl`, the solubility amounted to 265 µg/mL (≈ 564 µM) in data set [1] and 130 µg/mL (≈ 277 µM) in data set [2]. Also, the IC50 is 0.6 nM in data set [3] and 51 nM in data set [4].
With `CCCS(=O)(=O)Nc1ccc(F)c(C(=O)Nc2cnc3[nH]nc(OC)c3c2)c1F`, the results for the solubility in data set [1] and in data set [2] were 9 µg/mL (≈ 21.2 µM) and 4 µg/mL (≈ 9.4 µM), respectively.
With `CCCS(=O)(=O)Nc1ccc(F)c(C(=O)Nc2cnc3[nH]nc(C4CC4)c3c2)c1Cl`, the solubility was found to be 127 µg/mL (≈ 281 µM) in data set [1] and 54 µg/mL (≈ 119 µM) in data set [2]. Besides, the IC50 in data set [3] amounted to 3.8 nM; in data set [4], 33 nM.
On to `CCCS(=O)(=O)Nc1ccc(F)c(C(=O)Nc2cnc3[nH]nc(C(C)C)c3c2)c1F`, for which the concentration in solution in data set [2] (solubility) was 6 µg/mL (≈ 13.7 µM). For the same compound, the IC50 in data set [3] was 14 nM; in data set [4], 89 nM.
`CCCS(=O)(=O)Nc1ccc(Cl)c(C(=O)Nc2cnc3[nH]nc(OC)c3c2)c1F`: the solubility in data set [1] was 2 µg/mL (≈ 4.53 µM); in data set [2], less than 1 µg/mL.
On to `CCCS(=O)(=O)Nc1ccc(F)c(C(=O)Nc2cnc3[nH]nc(OC)c3c2)c1Cl`, for which the figures for the solubility in data set [1] and in data set [2] were 2 µg/mL (≈ 4.53 µM) and less than 1 µg/mL, respectively. Further, the IC50 in data set [3] was found to be 2.2 nM; in data set [4], 19 nM.
As for `CCCS(=O)(=O)Nc1ccc(F)c(C(=O)Nc2cnc3[nH]nc(C4CC4)c3c2)c1F`, the values for the solubility in data set [1] and in data set [2] were 4 µg/mL (≈ 9.19 µM) and 1 µg/mL (≈ 2.3 µM), respectively. Also, the IC50 in data set [3] worked out at 2.7 nM; in data set [4], 23 nM.

Source of the values: ChEMBL document CHEMBL1938390, “Pyrazolopyridine inhibitors of B-Raf(V600E). Part 3: an increase in aqueous solubility via the disruption of crystal packing” (Bioorg Med Chem Lett, 2012).
